The test system of one test is human A549 cells. In words: Inhibition test of PGE2 production using human A549 cells. Type of test: cell-based. The note with it: IL-1β stimulated A549 cells, 24 h, PGE2 by HTRF, read-out: A549 cell inhibition of PGE2 production IC50. The procedure, abridged:
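A549 cells were preincubated 60 min with compound in RPMI/3% FBS (0.1% DMSO final), then stimulated with IL-1β (5 ng/well) for 24 h at 37°C. PGE2 was measured by HTRF and PGF2a by EIA; activity was normalized to stimulated minus unstimulated controls, and IC50 derived.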

The target of the next test is human mPGES-1 (Homo sapiens (Human), UniProt O14684). Briefly: mPGES-1 inhibitory activity test. Type of test: biochemical. The note with it: for inhibition at 0.01 µM: 10 nM test compound; for inhibition at 0.1 µM: 100 nM test compound. In a few lines: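 PGE2 formation was quantified by HTRF and reported as percent inhibition at 10 and 100 nM compound or as IC50. The 60-second reaction at 4° C used 1 μM PGH2, after a 20-minute 4° C preincubation of compound (1% DMSO final) with glutathione-supplemented (2.5 mM, pH 7.4) microsomes. The microsomes were from transiently transfected CHO-K1 cells expressing human mPGES-1.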
human mPGES-1, sequence (O14684 whole entry): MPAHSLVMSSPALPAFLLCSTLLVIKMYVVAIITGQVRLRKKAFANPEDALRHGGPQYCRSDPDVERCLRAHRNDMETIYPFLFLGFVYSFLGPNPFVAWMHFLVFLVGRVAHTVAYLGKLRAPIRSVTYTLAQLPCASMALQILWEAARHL

The structures appear in SMILES notation. Some results are limits rather than exact numbers.

A word on the IC50: it is the concentration that inhibits the measured activity by half. For orientation: inhibition means the change of the read-out against control, counted positive when it falls.

Take `Cn1ncc2c(NC(=O)c3cc(CNC(=O)C(C)(C)C)ccc3C(F)(F)F)cccc21` [Example 209, 5-{[(2,2-Dimethylpropanoyl)amino]methyl}-N-(1-methyl-1H-indazol-4-yl)-2-(trifluoromethyl)benzamide]: the IC50 in the test with human A549 cells came to 38.4 nM. Besides, on human mPGES-1, the inhibition at 0.01 µM worked out at 76% and the inhibition at 0.1 µM was determined as 90%.

As for `CCn1ncc2c(NC(=O)c3cc(CNC(=O)CC(C)(C)C)ccc3Cl)cccc21` [Example 210, 2-Chloro-5-{[(3,3-dimethylbutanoyl)amino]methyl}-N-(1-ethyl-1H-indazol-4-yl)benzamide], the IC50 in the test with human A549 cells came out at 379 nM. Further, the inhibition at 0.01 µM on human mPGES-1 came to 64%.

As to `CCn1ncc2c(NC(=O)c3cc(CNC(=O)C4CCCC4)ccc3Cl)cccc21` [Example 211, 2-Chloro-5-{[(cyclopentylcarbonyl)amino]methyl}-N-(1-ethyl-1H-indazol-4-yl)benzamide], the IC50 in the test with human A549 cells turned out to be 65.8 nM. Moreover, the inhibition at 0.01 µM on human mPGES-1 is 84%.

In the case of `CCn1ncc2c(NC(=O)c3cc(CNC(=O)C4(C(F)(F)F)CC4)ccc3Cl)cccc21` [Example 212, 2-Chloro-N-(1-ethyl-1H-indazol-4-yl)-5-[({[1-(trifluoromethyl)cyclopropyl]carbonyl}amino)methyl]benzamide], in the test with human A549 cells, the IC50 came to 17.3 nM. The inhibition at 0.01 µM on human mPGES-1 came out at 71%.

With `CCn1ncc2c(NC(=O)c3cc(CNC(=O)C(C)(C)C)ccc3C(F)(F)F)cccc21` [Example 217, 5-{[(2,2-Dimethylpropanoyl)amino]methyl}-N-(1-ethyl-1H-indazol-4-yl)-2-(trifluoromethyl)benzamide], in the test on human A549 cells, the IC50 worked out at 14.7 nM. At human mPGES-1, the inhibition at 0.01 µM was determined as 79% and the inhibition at 0.1 µM amounted to 80%.

Consider `O=C(Nc1cccc2c1cnn2-c1cccc(C(F)(F)F)c1)c1cc(CNC(=O)C2CCCC2)ccc1Cl` [Example 219, 2-Chloro-5-{[(cyclopentylcarbonyl)amino]methyl}-N-{1-[3-(trifluoromethyl)phenyl]-1H-indazol-4-yl}benzamide], for which the IC50 in the test with human A549 cells amounted to 1 nM. Also, on human mPGES-1, the inhibition at 0.01 µM is 74% and the inhibition at 0.1 µM is 93%.

Turning to `O=C(Nc1cccc2c1cnn2-c1cccc(C(F)(F)F)c1)c1cc(CNC(=O)C2(C(F)(F)F)CC2)ccc1Cl` [Example 220, 2-Chloro-5-[({[1-(trifluoromethyl)cyclopropyl]carbonyl}amino)methyl]-N-{1-[3-(trifluoromethyl)phenyl]-1H-indazol-4-yl}benzamide], the half-maximal inhibitory concentration (IC50) in the test on human A549 cells is under 1 nM. Also, on human mPGES-1, the inhibition at 0.01 µM came to 74% and the inhibition at 0.1 µM was 90%.

Consider `O=C(Nc1cccc2c1cnn2-c1cccc(C(F)(F)F)c1)c1cc(CNC(=O)C2(O)CC2)ccc1Cl` [Example 221, 2-Chloro-5-({[(1-hydroxycyclopropyl)carbonyl]amino}methyl)-N-{1-[3-(trifluoromethyl)phenyl]-1H-indazol-4-yl}benzamide], for which the IC50 in the test with human A549 cells worked out at 2.6 nM. For the same compound, on human mPGES-1, the inhibition at 0.01 µM amounted to 65% and the inhibition at 0.1 µM worked out at 100%.

Consider `COCC(=O)NCc1ccc(Cl)c(C(=O)Nc2cccc3c2cnn3-c2cccc(C(F)(F)F)c2)c1` [Example 222, 2-Chloro-5-{[(methoxyacetyl)amino]methyl}-N-{1-[3-(trifluoromethyl)phenyl]-1H-indazol-4-yl}benzamide], for which the IC50 in the test on human A549 cells stood at 3.3 nM. Also, at human mPGES-1, the inhibition at 0.01 µM worked out at 61%.

As for `CC(C)(CO)C(=O)NCc1ccc(Cl)c(C(=O)Nc2cccc3c2cnn3-c2cccc(C(F)(F)F)c2)c1` [Example 223, 2-Chloro-5-{[(3-hydroxy-2,2-dimethylpropanoyl)amino]methyl}-N-{1-[3-(trifluoromethyl)phenyl]-1H-indazol-4-yl}benzamide], the IC50 in the test with human A549 cells was 0.6 nM. Besides, the inhibition at 0.01 µM against human mPGES-1 was 78%.

On to `O=C(Nc1cccc2c1cnn2-c1cccc(C(F)(F)F)c1)c1cc(CNS(=O)(=O)C2CC2)ccc1Cl` [Example 224, 2-Chloro-5-{[(cyclopropylsulfonyl)amino]methyl}-N-{1-[3-(trifluoromethyl)phenyl]-1H-indazol-4-yl}benzamide], for which the IC50 in the test with human A549 cells was under 1 nM. The inhibition at 0.01 µM against human mPGES-1 was found to be 83%.

As for `O=C(Nc1cccc2c1cnn2-c1nccs1)c1cc(CNC(=O)C2CCCC2)ccc1Cl` [Example 227, 2-Chloro-5-{[(cyclopentylcarbonyl)amino]methyl}-N-[1-(1,3-thiazol-2-yl)-1H-indazol-4-yl]benzamide], the IC50 with human A549 cells amounted to 10 nM. Besides, the inhibition at 0.01 µM on human mPGES-1 was 81%.

On to `O=C(Nc1cccc2c1cnn2-c1nccs1)c1cc(CNC(=O)C2(C(F)(F)F)CC2)ccc1Cl` [Example 228, 2-Chloro-N-[1-(1,3-thiazol-2-yl)-1H-indazol-4-yl]-5-[({[1-(trifluoromethyl)cyclopropyl]carbonyl}amino)methyl]benzamide], for which, in the test with human A549 cells, the IC50 was 12.9 nM. In addition, on human mPGES-1, the inhibition at 0.01 µM was found to be 77%.

`Cc1cc(-n2ncc3c(NC(=O)c4cc(CNC(=O)C5CCCC5)ccc4Cl)cccc32)ccn1` [Example 235, 2-Chloro-5-{[(cyclopentylcarbonyl)amino]methyl}-N-[1-(2-methylpyridin-4-yl)-1H-indazol-4-yl]benzamide]: in the test on human A549 cells, the IC50 amounted to 6.1 nM. At human mPGES-1, the inhibition at 0.01 µM is 53% and the inhibition at 0.1 µM worked out at 88%.

`Cc1cncc(-n2ncc3c(NC(=O)c4cc(CNC(=O)C(C)(C)C)ccc4C(F)(F)F)cccc32)c1` [Example 246, 5-{[(2,2-dimethylpropanoyl)amino]methyl}-N-[1-(5-methylpyridin-3-yl)-1H-indazol-4-yl]-2-(trifluoromethyl)benzamide]: the IC50 with human A549 cells came to 3.5 nM. For the same compound, at human mPGES-1, the inhibition at 0.01 µM was 78% and the inhibition at 0.1 µM is 89%.

As for `Cc1ccc(-n2ncc3c(NC(=O)c4cc(CNS(=O)(=O)C5CC5)ccc4Cl)cccc32)nn1` [Example 253, 2-Chloro-5-{[(cyclopropylsulfonyl)amino]methyl}-N-[1-(6-methylpyridazin-3-yl)-1H-indazol-4-yl]benzamide], the IC50 in the test with human A549 cells was 299 nM. Besides, on human mPGES-1, the inhibition at 0.01 µM came to 67% and the inhibition at 0.1 µM came out at 75%.

For the compound `Cc1ccc(-n2ncc3c(NC(=O)c4cc(CNC(=O)CC(C)(C)C)ccc4Cl)cccc32)cc1C(F)(F)F` [Example 254, 2-Chloro-5-{[(3,3-dimethylbutanoyl)amino]methyl}-N-{1-[4-methyl-3-(trifluoromethyl)phenyl]-1H-indazol-4-yl}benzamide], the IC50 in the test on human A549 cells was 0.7 nM. On human mPGES-1, the inhibition at 0.01 µM amounted to 100% and the inhibition at 0.1 µM was determined as 99%.

In the case of `Cc1ccc(-n2ncc3c(NC(=O)c4cc(CNC(=O)C5(C(F)(F)F)CC5)ccc4Cl)cccc32)cc1C(F)(F)F` [Example 256, 2-Chloro-N-{1-[4-methyl-3-(trifluoromethyl)phenyl]-1H-indazol-4-yl}-5-[({[1-(trifluoromethyl)cyclopropyl]carbonyl}amino)methyl]benzamide], the IC50 in the test on human A549 cells was 0.3 nM. Also, at human mPGES-1, the inhibition at 0.01 µM turned out to be 88% and the inhibition at 0.1 µM came to 98%.

With `Cc1ccc(-n2ncc3c(NC(=O)c4cc(CNC(=O)C5(O)CC5)ccc4Cl)cccc32)cc1C(F)(F)F` [Example 257, 2-Chloro-5-({[(1-hydroxycyclopropyl)carbonyl]amino}methyl)-N-{1-[4-methyl-3-(trifluoromethyl)phenyl]-1H-indazol-4-yl}benzamide], the IC50 in the test on human A549 cells was 4.3 nM. Besides, at human mPGES-1, the inhibition at 0.01 µM turned out to be 94% and the inhibition at 0.1 µM was found to be 96%.

Take `COCC(=O)NCc1ccc(Cl)c(C(=O)Nc2cccc3c2cnn3-c2ccc(C)c(C(F)(F)F)c2)c1` [Example 258, 2-Chloro-5-{[(methoxyacetyl)amino]methyl}-N-{l-[4-methyl-3-(trifluoromethyl)phenyl]-1H-indazol-4-yl}benzamide]: the IC50 with human A549 cells amounted to 3.2 nM. On human mPGES-1, the inhibition at 0.01 µM worked out at 84% and the inhibition at 0.1 µM came to 100%.

As to `Cc1ccc(-n2ncc3c(NC(=O)c4cc(CNC(=O)C(C)(C)CO)ccc4Cl)cccc32)cc1C(F)(F)F` [Example 259, 2-Chloro-5-{[(3-hydroxy-2,2-dimethylpropanoyl)amino]methyl}-N-{1-[4-methyl-3-(trifluoromethyl)phenyl]-1H-indazol-4-yl}benzamide], the IC50 in the test with human A549 cells amounted to 0.5 nM. Moreover, on human mPGES-1, the inhibition at 0.01 µM turned out to be 92% and the inhibition at 0.1 µM is 92%.

In the case of `Cc1ccc(-n2ncc3c(NC(=O)c4cc(CNS(=O)(=O)C5CC5)ccc4Cl)cccc32)cc1C(F)(F)F` [Example 260, 2-Chloro-5-{[(cyclopropylsulfonyl)amino]methyl}-N-{1-[4-methyl-3-(trifluoromethyl)phenyl]-1H-indazol-4-yl}benzamide], in the test with human A549 cells, the IC50 was found to be 1 nM. Further, at human mPGES-1, the inhibition at 0.01 µM stood at 89% and the inhibition at 0.1 µM is 101%.

As for `COc1ccc(-n2ncc3c(NC(=O)c4cc(CNC(=O)CC(C)(C)C)ccc4Cl)cccc32)cc1C(F)(F)F` [Example 261, 2-Chloro-5-{[(3,3-dimethylbutanoyl)amino]methyl}-N-{1-[4-methoxy-3-(trifluoromethyl)phenyl]-1H-indazol-4-yl}benzamide], the IC50 in the test with human A549 cells was 1.4 nM. On human mPGES-1, the inhibition at 0.01 µM was determined as 95% and the inhibition at 0.1 µM came out at 100%.

Consider `COc1ccc(-n2ncc3c(NC(=O)c4cc(CNC(=O)C5CCCC5)ccc4Cl)cccc32)cc1C(F)(F)F` [Example 262, 2-Chloro-5-{[(cyclopentylcarbonyl)amino]methyl}-N-{1-[4-methoxy-3-(trifluoromethyl)phenyl]-1H-indazol-4-yl}benzamide], for which, in the test with human A549 cells, the IC50 came to 2 nM. In addition, at human mPGES-1, the inhibition at 0.01 µM turned out to be 99% and the inhibition at 0.1 µM was 94%.
